# Experimental data reported in PMC3920478, “Small molecule-mediated refolding and activation of myosin motor function” (eLife, 2014).
# How the values were obtained:
# Dd myosin-2 motor domain = biological target: T1, Dd myosin-2 motor domain (Dictyostelium discoideum, UniProt P08799); assay: Steady-state basal and actin-activated Mg2+-ATPase (NADH-coupled assay); type: biochemical
# T1 sequence (P08799 1-761 limits assumed): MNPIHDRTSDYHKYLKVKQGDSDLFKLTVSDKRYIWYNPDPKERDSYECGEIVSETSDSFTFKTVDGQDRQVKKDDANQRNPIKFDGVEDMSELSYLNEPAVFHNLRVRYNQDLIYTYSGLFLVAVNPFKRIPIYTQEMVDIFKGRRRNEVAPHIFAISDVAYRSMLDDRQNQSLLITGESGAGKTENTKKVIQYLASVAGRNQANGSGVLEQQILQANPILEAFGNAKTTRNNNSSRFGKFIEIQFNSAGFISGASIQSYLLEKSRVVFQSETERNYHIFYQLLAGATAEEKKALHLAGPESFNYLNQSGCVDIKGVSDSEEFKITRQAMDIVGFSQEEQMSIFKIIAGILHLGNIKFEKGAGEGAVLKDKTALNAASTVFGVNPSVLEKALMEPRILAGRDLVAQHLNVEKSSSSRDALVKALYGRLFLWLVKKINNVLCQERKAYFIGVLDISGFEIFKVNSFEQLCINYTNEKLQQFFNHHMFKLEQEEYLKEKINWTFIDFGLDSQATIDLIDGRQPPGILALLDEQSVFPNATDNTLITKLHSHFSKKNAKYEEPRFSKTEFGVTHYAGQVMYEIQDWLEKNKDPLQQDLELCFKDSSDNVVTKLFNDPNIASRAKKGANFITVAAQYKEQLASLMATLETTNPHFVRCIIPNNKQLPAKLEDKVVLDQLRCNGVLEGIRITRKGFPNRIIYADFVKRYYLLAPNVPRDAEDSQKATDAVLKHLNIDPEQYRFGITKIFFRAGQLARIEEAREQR
# Procedure: (§1) Proteolytic fragments were further purified by actin-coprecipitation.
# Basal and actin-activated Mg^2+-ATPase activities were measured using the NADH-coupled assay described previously ([Furch et al., 1998]) adapted for higher throughput screens for a temperature controlled plate reader (Multiscan FC, Thermo Scientific, Waltham, MA) at 25°C. EMD 57033 was added to the reaction mixture in the absence of nucleotide and incubated before the reaction was started by the addition of ATP. Control measurements were carried out in the absence of drug, as well as in the presence of according concentrations of the non-binding (−)-enantiomer EMD 57439 to account for possible absorption effects. […] Data points are mean values from 3 to 5 independent experiments. Error bars indicate standard deviations.
# phosphodiesterase III = system: phosphodiesterase III; parameters: method as in Gambassi et al., 1993; settings: ref Gambassi et al., 1993; cited from earlier work
# β-cardiac myosin = β-cardiac myosin (Sus scrofa, UniProt P79293); assay: Steady-state basal and actin-activated Mg2+-ATPase (NADH-coupled assay); type: biochemical, Porcine
# Procedure: Rabbit fast skeletal muscle heavy meromyosin (HMM) was prepared as described by [Margossian and Lowey (1982)]. Porcine β-cardiac myosin was prepared essentially as described by [Pant et al. (2009)] and [Jacques et al. (2008)] and further purified by gel filtration. S1 and HMM fragments were produced by proteolytic digestion of the full-length proteins with 0.05 mg/ml papain (10 min, 25°C) for S1 and with 0.1 mg/ml TLCK-treated α-chymotrypsin (15 min, 25°C) for HMM. Reactions were stopped with specific protease inhibitors for papain (10 µM E−64) and chymotrypsin (10 µM chymostatin, 1 mM benzamidine). Proteolytic fragments were further purified by actin-coprecipitation. Pellets were washed twice and myosin was extracted from the pellets using ATP containing buffer. Gel filtration was used to further increase purity of myosin S1 and HMM fragments. His-tagged motor domain constructs of Dd myosin-2, Dd myosin-1B, Dd myosin-1C, Dd myosin-1D, Dd myosin-1E, Dd myosin-5b fused to two Dd α-actinin repeats substituting the light-chain binding domains ([Anson et al., 1996]) were expressed in Dd AX3-ORF + cells and purified by Ni^2+-chelate affinity chromatography ([Manstein and Hunt, 1995]).
# Basal and actin-activated Mg^2+-ATPase activities were measured using the NADH-coupled assay described previously ([Furch et al., 1998]) adapted for higher throughput screens for a temperature controlled plate reader (Multiscan FC, Thermo Scientific, Waltham, MA) at 25°C. […] Control measurements were carried out in the absence of drug, as well as in the presence of according concentrations of the non-binding (−)-enantiomer EMD 57439 to account for possible absorption effects. […] Data points are mean values from 3 to 5 independent experiments. Error bars indicate standard deviations.
# Dd myosin-5 motor domain = biological target: T2, Dd myosin-5 motor domain (Dictyostelium discoideum, UniProt P54697); assay: Direct binding to motor domain construct
# T2 sequence (P54697 1-821 limits assumed): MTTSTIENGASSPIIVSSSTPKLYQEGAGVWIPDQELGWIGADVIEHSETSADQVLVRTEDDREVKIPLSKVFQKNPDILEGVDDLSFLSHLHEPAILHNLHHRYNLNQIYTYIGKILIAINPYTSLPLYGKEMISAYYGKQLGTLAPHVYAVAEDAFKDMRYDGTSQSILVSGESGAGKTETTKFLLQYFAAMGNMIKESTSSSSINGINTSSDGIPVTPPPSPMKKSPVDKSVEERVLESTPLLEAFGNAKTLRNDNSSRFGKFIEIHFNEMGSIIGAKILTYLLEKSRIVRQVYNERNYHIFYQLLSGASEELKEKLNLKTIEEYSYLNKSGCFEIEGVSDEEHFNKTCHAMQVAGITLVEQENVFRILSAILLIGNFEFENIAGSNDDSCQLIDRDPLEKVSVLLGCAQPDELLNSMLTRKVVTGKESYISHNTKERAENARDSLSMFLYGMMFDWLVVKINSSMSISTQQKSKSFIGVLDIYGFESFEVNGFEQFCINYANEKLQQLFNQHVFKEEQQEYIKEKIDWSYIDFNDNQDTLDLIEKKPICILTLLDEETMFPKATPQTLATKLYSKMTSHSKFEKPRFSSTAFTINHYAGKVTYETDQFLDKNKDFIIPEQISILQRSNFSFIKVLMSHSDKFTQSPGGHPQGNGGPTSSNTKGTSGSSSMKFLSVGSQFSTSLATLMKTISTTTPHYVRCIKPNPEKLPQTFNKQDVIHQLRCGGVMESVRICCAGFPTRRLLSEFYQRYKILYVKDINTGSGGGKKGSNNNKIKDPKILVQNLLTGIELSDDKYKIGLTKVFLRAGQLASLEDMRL
# Description: as §1
# Sequence of β-cardiac myosin (P79293 1-810 limits assumed): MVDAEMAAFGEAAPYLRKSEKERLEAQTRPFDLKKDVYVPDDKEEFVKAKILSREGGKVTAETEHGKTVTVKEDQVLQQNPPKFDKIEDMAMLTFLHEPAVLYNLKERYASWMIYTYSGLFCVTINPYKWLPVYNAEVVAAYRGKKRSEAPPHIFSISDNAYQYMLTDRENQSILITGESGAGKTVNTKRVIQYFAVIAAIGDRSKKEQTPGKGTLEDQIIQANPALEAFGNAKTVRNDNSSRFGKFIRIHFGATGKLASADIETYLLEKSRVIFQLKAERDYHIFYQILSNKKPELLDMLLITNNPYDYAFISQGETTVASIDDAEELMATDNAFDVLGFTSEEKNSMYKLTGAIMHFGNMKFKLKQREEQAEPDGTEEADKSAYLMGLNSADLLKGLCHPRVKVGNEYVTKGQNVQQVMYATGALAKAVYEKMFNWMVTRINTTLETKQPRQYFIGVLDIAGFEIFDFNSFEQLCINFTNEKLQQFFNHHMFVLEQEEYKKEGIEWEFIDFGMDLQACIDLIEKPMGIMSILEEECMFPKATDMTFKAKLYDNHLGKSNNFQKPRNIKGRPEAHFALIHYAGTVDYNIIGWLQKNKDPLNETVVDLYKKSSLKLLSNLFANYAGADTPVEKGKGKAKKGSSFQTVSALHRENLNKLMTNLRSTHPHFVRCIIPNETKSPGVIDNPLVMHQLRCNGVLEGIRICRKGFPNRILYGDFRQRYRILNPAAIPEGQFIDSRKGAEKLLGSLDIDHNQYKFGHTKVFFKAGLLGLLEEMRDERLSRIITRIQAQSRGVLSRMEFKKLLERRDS
compound,measurement,setting,value
COc1ccc(C(=O)N2CCCc3cc(C4=NNC(=O)SC4C)ccc32)cc1OC (centres unmarked) [EMD 57033],AC50,Dd myosin-2 motor domain,25.8 µM
same,Normalized maximal ATPase activation (basal),Dd myosin-2 motor domain,1.4
same,Normalized maximal ATPase activation (with 30 µM actin),Dd myosin-2 motor domain; 30 µM actin,2.8
same,Basal ATP turnover relative to that expected for 100% active protein,Dd myosin-2 motor domain; saturating EMD 57033,1.4 fold
same,Phosphodiesterase III inhibition,phosphodiesterase III,only minimal phosphodiesterase III inhibitory effects
same,Normalized maximal ATPase activation (basal),β-cardiac myosin,1.5
same,"Effect on KM,ATP (Lineweaver–Burk plot)",β-cardiac myosin; 25 µM EMD 57033,remains unaffected
same,kcat increase (Lineweaver–Burk plot),β-cardiac myosin; 25 µM EMD 57033,1.5 fold
same,"kcat ∼Change (−fold), increase",β-cardiac myosin; 25 µM EMD 57033 vs control,1.6 fold
same,kcat/KM(Actin) (initial slope) ∼Change (−fold),β-cardiac myosin; 25 µM EMD 57033 vs control,~15.8 fold
same,Normalized maximal ATPase activation (with 30 µM actin),β-cardiac myosin; 30 µM actin,2.5
same,kcat (actin-activated ATPase),β-cardiac myosin; in presence of 25 µM EMD 57033,0.19 ± 0.02 s⁻¹
same,"kcat/KM(Actin), calculated ratio of both values",β-cardiac myosin; in presence of 25 µM EMD 57033,0.0528 µM^v1 s^−1
same,Basal ATP turnover relative to that expected for 100% active protein,β-cardiac myosin; saturating EMD 57033,1.5 fold
same,AC50,"β-cardiac myosin; β-Cardiac myosin-2 (S1, full-length), read-out: AC50 ATPase (half-maximal activation)",7 µM
same,ATPase activity in excess of the value expected for a 100% active population of myosin heads,β-cardiac myosin; β-cardiac myosin and Dd myosin-2 preparations together,30–50%
same,Direct binding to the motor domain,Dd myosin-5 motor domain,Direct binding of EMD 57033 to the motor domain was observed
